Reference: PubChem BioAssay (NCI)
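Five concentrations, 48 hours, 96-well plates. TGI: concentration producing complete growth inhibition.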

How the values were obtained:
Test in all cases: NCI-60 cell line screen, 48 h
MDA-MB-231 breast = system: MDA-MB-231 breast
MDA-MB-435 = system: MDA-MB-435
HCT-116 colon = system: HCT-116 colon
OVCAR-4 ovarian = system: OVCAR-4 ovarian
HT29 colon = system: HT29 colon
UACC-257 melanoma = system: UACC-257 melanoma
A498 renal = system: A498 renal
BT-549 breast = system: BT-549 breast
MDA-N = system: MDA-N
SF-539 CNS = system: SF-539 CNS
786-0 renal = system: 786-0 renal
T-47D breast = system: T-47D breast
SNB-19 CNS = system: SNB-19 CNS
HL-60(TB) leukemia = system: HL-60(TB) leukemia
KM12 colon = system: KM12 colon
CAKI-1 renal = system: CAKI-1 renal
OVCAR-5 ovarian = system: OVCAR-5 ovarian
NCI/ADR-RES ovarian = system: NCI/ADR-RES ovarian
NCI-H460 lung = system: NCI-H460 lung
HOP-92 NSCLC = system: HOP-92 NSCLC
SK-OV-3 ovarian = system: SK-OV-3 ovarian
U251 CNS = system: U251 CNS
RXF 393 renal = system: RXF 393 renal
EKVX NSCLC = system: EKVX NSCLC
SN12C renal = system: SN12C renal
SW-620 colon = system: SW-620 colon
HOP-62 NSCLC = system: HOP-62 NSCLC
COLO 205 colon = system: COLO 205 colon
OVCAR-3 ovarian = system: OVCAR-3 ovarian
SF-268 CNS = system: SF-268 CNS
SK-MEL-2 melanoma = system: SK-MEL-2 melanoma
MCF7 breast = system: MCF7 breast
M14 melanoma = system: M14 melanoma
NCI-H226 lung = system: NCI-H226 lung
UO-31 renal = system: UO-31 renal
SNB-75 CNS = system: SNB-75 CNS
ACHN renal = system: ACHN renal
OVCAR-8 ovarian = system: OVCAR-8 ovarian
LOX IMVI melanoma = system: LOX IMVI melanoma
HCT-15 colon = system: HCT-15 colon
A549 NSCLC = system: A549 NSCLC
SK-MEL-5 melanoma = system: SK-MEL-5 melanoma
DU-145 prostate = system: DU-145 prostate
TK-10 renal = system: TK-10 renal
SF-295 CNS = system: SF-295 CNS
MOLT-4 leukemia = system: MOLT-4 leukemia
IGROV1 ovarian = system: IGROV1 ovarian
UACC-62 melanoma = system: UACC-62 melanoma
NCI-H23 lung = system: NCI-H23 lung
SK-MEL-28 melanoma = system: SK-MEL-28 melanoma
HCC-2998 colon = system: HCC-2998 colon
K-562 leukemia = system: K-562 leukemia
CCRF-CEM leukemia = system: CCRF-CEM leukemia
RPMI-8226 leukemia = system: RPMI-8226 leukemia
SR leukemia = system: SR leukemia
PC-3 prostate = system: PC-3 prostate

Molecule `CCCCN(CC)C(=O)C1=C(C)NC(C)=C(C(=O)N(CC)CCCC)C1` has a TGI (MDA-MB-231 breast) greater than 100 µM, a TGI (MDA-MB-435) greater than 100 µM and a TGI (HCT-116 colon) greater than 100 µM. It also gave a TGI (OVCAR-4 ovarian) greater than 100 µM, a TGI (HT29 colon) greater than 100 µM and a TGI (UACC-257 melanoma) greater than 100 µM. The TGI (A498 renal) was greater than 100 µM, the TGI (BT-549 breast) was greater than 100 µM and the TGI (MDA-N) was greater than 100 µM. For the same molecule, the TGI (SF-539 CNS) was greater than 100 µM, the TGI (786-0 renal) was greater than 100 µM and the TGI (T-47D breast) was greater than 100 µM. It also gave a TGI (SNB-19 CNS) greater than 100 µM, a TGI (HL-60(TB) leukemia) greater than 100 µM and a TGI (KM12 colon) greater than 100 µM. For the same molecule, the TGI (CAKI-1 renal) was greater than 100 µM, the TGI (OVCAR-5 ovarian) was greater than 100 µM and the TGI (NCI/ADR-RES ovarian) was greater than 100 µM. The TGI (NCI-H460 lung) was greater than 100 µM, the TGI (HOP-92 NSCLC) was greater than 100 µM and the TGI (SK-OV-3 ovarian) was greater than 100 µM. The TGI (U251 CNS) was greater than 100 µM, the TGI (RXF 393 renal) was greater than 100 µM and the TGI (EKVX NSCLC) was greater than 100 µM. It also gave a TGI (SN12C renal) greater than 100 µM, a TGI (SW-620 colon) greater than 100 µM and a TGI (HOP-62 NSCLC) greater than 100 µM. The TGI (COLO 205 colon) was greater than 100 µM, the TGI (OVCAR-3 ovarian) was greater than 100 µM and the TGI (SF-268 CNS) was greater than 100 µM. The TGI (SK-MEL-2 melanoma) was greater than 100 µM, the TGI (MCF7 breast) was greater than 100 µM and the TGI (M14 melanoma) was greater than 100 µM. The TGI (NCI-H226 lung) was greater than 100 µM, the TGI (UO-31 renal) was greater than 100 µM and the TGI (SNB-75 CNS) was greater than 100 µM. For the same molecule, the TGI (ACHN renal) was greater than 100 µM, the TGI (OVCAR-8 ovarian) was greater than 100 µM and the TGI (LOX IMVI melanoma) was greater than 100 µM. For the same molecule, the TGI (HCT-15 colon) was greater than 100 µM, the TGI (A549 NSCLC) was greater than 100 µM and the TGI (SK-MEL-5 melanoma) was greater than 100 µM. For the same molecule, the TGI (DU-145 prostate) was greater than 100 µM, the TGI (TK-10 renal) was greater than 100 µM and the TGI (SF-295 CNS) was greater than 100 µM. It also gave a TGI (MOLT-4 leukemia) greater than 100 µM, a TGI (IGROV1 ovarian) greater than 100 µM and a TGI (UACC-62 melanoma) greater than 100 µM. For the same molecule, the TGI (NCI-H23 lung) was greater than 100 µM, the TGI (SK-MEL-28 melanoma) was greater than 100 µM and the TGI (HCC-2998 colon) was greater than 100 µM.

`CS(=O)(=O)OCOS(C)(=O)=O` was tested, and the TGI (MDA-MB-231 breast) was greater than 100 µM, the TGI (MDA-MB-435) was greater than 100 µM and the TGI (HCT-116 colon) was greater than 100 µM. It also gave a TGI (OVCAR-4 ovarian) greater than 100 µM, a TGI (HT29 colon) greater than 100 µM and a TGI (UACC-257 melanoma) greater than 100 µM. It also gave a TGI (A498 renal) greater than 100 µM, a TGI (K-562 leukemia) greater than 100 µM and a TGI (BT-549 breast) greater than 100 µM. It also gave a TGI (MDA-N) greater than 100 µM, a TGI (SF-539 CNS) greater than 100 µM and a TGI (786-0 renal) greater than 100 µM. For the same molecule, the TGI (SNB-19 CNS) was greater than 100 µM, the TGI (HL-60(TB) leukemia) was greater than 100 µM and the TGI (KM12 colon) was greater than 100 µM. For the same molecule, the TGI (CAKI-1 renal) was greater than 100 µM, the TGI (OVCAR-5 ovarian) was greater than 100 µM and the TGI (NCI/ADR-RES ovarian) was greater than 100 µM. It also gave a TGI (NCI-H460 lung) greater than 100 µM, a TGI (HOP-92 NSCLC) greater than 100 µM and a TGI (SK-OV-3 ovarian) greater than 100 µM. For the same molecule, the TGI (U251 CNS) was greater than 100 µM, the TGI (EKVX NSCLC) was greater than 100 µM and the TGI (SN12C renal) was greater than 100 µM. It also gave a TGI (SW-620 colon) greater than 100 µM, a TGI (HOP-62 NSCLC) greater than 100 µM and a TGI (COLO 205 colon) greater than 100 µM. For the same molecule, the TGI (CCRF-CEM leukemia) was 44.5 µM, the TGI (OVCAR-3 ovarian) was greater than 100 µM and the TGI (SK-MEL-2 melanoma) was greater than 100 µM. It also gave a TGI (MCF7 breast) greater than 100 µM, a TGI (RPMI-8226 leukemia) greater than 100 µM and a TGI (M14 melanoma) greater than 100 µM. It also gave a TGI (NCI-H226 lung) greater than 100 µM, a TGI (SR leukemia) of 47.9 µM and a TGI (UO-31 renal) greater than 100 µM. It also gave a TGI (ACHN renal) greater than 100 µM, a TGI (OVCAR-8 ovarian) greater than 100 µM and a TGI (LOX IMVI melanoma) greater than 100 µM. For the same molecule, the TGI (HCT-15 colon) was greater than 100 µM, the TGI (A549 NSCLC) was greater than 100 µM and the TGI (SK-MEL-5 melanoma) was greater than 100 µM. The TGI (DU-145 prostate) was greater than 100 µM, the TGI (PC-3 prostate) was greater than 100 µM and the TGI (TK-10 renal) was greater than 100 µM. For the same molecule, the TGI (SF-295 CNS) was greater than 100 µM, the TGI (MOLT-4 leukemia) was greater than 100 µM and the TGI (IGROV1 ovarian) was greater than 100 µM. The TGI (UACC-62 melanoma) was greater than 100 µM, the TGI (NCI-H23 lung) was greater than 100 µM and the TGI (SK-MEL-28 melanoma) was greater than 100 µM. The TGI (HCC-2998 colon) was greater than 100 µM.
